# Reference: patent US6573377B1, “Pyrazole derivatives and salts thereof” (Daiichi Pharmaceuticals Co., Ltd., priority 1998, dated 2003)
# Counter-ions that a name gives are not always drawn. Marks after values point to notes of the source that are not given here.
# Assays:
# [1] = tested on: human pulmonary carcinoma strain PC-12; assay: Growth inhibition of PC-12 cells, MTT assay (Test Example 1); type: cell-based; conditions: cultured 3 days with sample, absorbance 540 nm; for GI50: Homo sapiens, PC-12, 72 h
# Method: A human pulmonary carcinoma strain PC-12 which had been subcultured using RPMI 1640 containing 10% fetal calf serum, 2 mM of L-glutamine and 100 μg/ml of kanamycin sulfate was inoculated into a 96 well microplate at an inoculum size of 1.0×1.0^3 cells/150 μl/well, and 50 μl/well of a sample was added 24 hours thereafter. The cells were then cultured for 3 days, and a 5 mg/ml solution of MTT (3-(4,5-dimethylthiazol-2-yl)-2,5-diphenyl-2H-tetrazolium bromide) was dispensed in 20 μl/well portions. Four hours thereafter, the culture medium was discarded, dimethyl sulfoxide was dispensed in 150 μl/well portions and the absorbance was measured at 540 nm. The antitumor effect was shown by GI50 value (ng/ml) as a drug concentration which reduced cell growth of the drug-added group to 50% of the control group.
# mice (Balb/c) = assay: Coordination inhibition test, RotaRod (Test Example 2); type: in vivo; conditions: oral; for T/C (coordination inhibition positive mice/tested mice) After 1 hour: 1 hour after administration; for T/C (coordination inhibition positive mice/tested mice) After 4 hours: 4 hours after administration
# Method: Rotation speed of the rotary rod (3 cm in diameter) of RotaRod apparatus (mfd. by Natsume Seisaku-sho) was set to 10 rpm, and mice (Balb/c) which stood on the rod for 60 seconds or more were selected. After 1, 4 or 24 hours of the oral administration of each test sample, these mice were put on the rod, and the mice which dropped within 60 seconds were regarded as coordination inhibition action positive.
# [2] = tested on: Mouse fibrosarcoma Meth A; assay: Antitumor effect (IR) against subcutaneously transplanted Meth A; type: in vivo, mice; conditions: judged on the 17th day
smiles,measurement,setting,value
"Cc1c(/C=C/CN2CCN3c4cc(F)ccc4OCC3C2)cnn1-c1nccc(N)n1 (racemic) [Example 3, (+/−)-3-[3-[1-(4-Amino-2-pyrimidinyl)-5-methyl-4-pyrazolyl]-2-trans-propen-1-yl]-9-fluoro-2,3,4,4a,5,6-hexahydro-1H-pyrazino[2,1-c]-1,4-benzoxazine hydrochloride]",GI50,[1],20.9 ng/mL
"Cc1c(/C=C/CN2CCN3c4ccccc4CC3C2)cnn1-c1nccc(N)n1 (racemic) [Example 4, (+/−)-2-[3-[1-(4-Amino-2-pyrimidinyl)-5-methyl-4-pyrazolyl]-2-trans-propen-1-yl]-1,2,3,4,10,10a-hexahydropyrazino[1,2-a]indole hydrochloride]",GI50,[1],12.1 ng/mL
"Cc1c(/C=C/CN2CCN3c4cc(F)ccc4CCC3C2)cnn1-c1nccc(N)n1 (single isomer, unassigned; isomer a) [Example 1, 3-[3-[1-(4-Amino-2-pyrimidinyl)-5-methyl-4-pyrazolyl]-2-trans-propen-1-yl]-9-fluoro-2,3,4,4a,5,6-hexahydro-1H-pyrazino[1,2-a]quinoline hydrochloride (isomer A)]",GI50 Value,[1]; listed as Compound of Example 1,36.5 ng/mL
"Cc1c(/C=C/CN2CCN3c4cc(F)ccc4CCC3C2)cnn1-c1nccc(N)n1 (single isomer, unassigned; isomer b) [Example 2, 3-[3-[1-(4-amino-2-pyrimidinyl)-5-methyl-4-pyrazolyl]-2-trans-propen-1-yl]-9-fluoro-2,3,4,4a,5,6-hexahydro-1H-pyrazino[1,2-a]quinoline hydrochloride (isomer B)]",GI50 Value,[1]; listed as Compound of Example 2,12.1 ng/mL
"Cc1c(/C=C/CN2CCN3c4cc(F)cc(F)c4CCC3C2)cnn1-c1cc(N(C)CCO)nc(N)n1.Cl (single isomer, unassigned; isomer b) [Example 28, 3-[3-[1-[2-Amino-6-[N-methyl-N-(2-hydroxyethyl)amino-4-pyrimidinyl]-5-methyl-4-pyrazolyl]-2-trans-propen-1-yl]-7,9-difluoro-2,3,4,4a,5,6-hexahydro-1H-pyrazino[1,2-a]quinoline hydrochloride (isomer B)]",GI50,[1],0.725 ng/mL
"Cc1c(/C=C/CN2CCN3c4cc(F)cc(F)c4CCC3C2)cnn1-c1cc(N(CCO)CCO)nc(N)n1 (single isomer, unassigned; isomer b) [Example 29, 3-[3-[1-[2-Amino-6-di(2-hydroxyethyl)amino-4-pyrimidinyl]-5-methyl-4-pyrazolyl]-2-trans-propen-1-yl]-7,9-difluoro-2,3,4,4a,5,6-hexahydro-1H-pyrazino[1,2-a]quinoline hydrochloride (isomer B)]",GI50,[1],1.54 ng/mL
"O=c1[nH]cc(F)c(=O)[nH]1 [Example 5-FU, 5-FU, reference compound]",GI50 Value,[1],35.5 ng/mL
"Cc1c(/C=C/CN2CCN(c3cc(F)cc(F)c3)CC2)cnn1-c1cc(NCCO)nc(N)n1.Cl [Example 11, 1-[1-[2-Amino-6-(2-hydroxyethyl)amino-4-pyrimidinyl]-5-methyl-4-pyrazolyl]-3-[4-(3,5-difluorophenyl)-1-piperazinyl]-1-trans-propene]",GI50,[1],2.49 ng/mL
"Cc1c(/C=C/CN2CCN(c3cc(F)cc(F)c3)CC2)cnn1-c1cc(N(CCO)CCO)nc(N)n1.Cl [Example 12, 1-[1-[2-Amino-6-di(2-hydroxyethyl)amino-4-pyrimidinyl]-5-methyl-4-pyrazolyl]-3-(4-(3,5-difluorophenyl)-1-piperazinyl]-1-trans-propene hydrochloride]",GI50,[1],1.6 ng/mL
"Cc1c(/C=C/CN2CCN(c3cc(F)cc(F)c3)CC2)cnn1-c1cc(N2CC(O)C2)nc(N)n1.Cl [Example 13, 1-[1-[2-Amino-6-(3-hydroxy-1-azetidinyl)-4-pyrimidinyl]-5-methyl-4-pyrazolyl]-3-[4-(3,5-difluorophenyl)-1-piperazinyl]-1-trans-propene hydrochloride]",GI50,[1],0.601 ng/mL
same,T/C (coordination inhibition positive mice/tested mice) After 1 hour,mice (Balb/c); dose 5 mg,0/6
same,T/C (coordination inhibition positive mice/tested mice) After 4 hours,mice (Balb/c); dose 5 mg,0/6
same,T/C (coordination inhibition positive mice/tested mice) After 1 hour,mice (Balb/c); dose 10 mg,0/6
same,T/C (coordination inhibition positive mice/tested mice) After 4 hours,mice (Balb/c); dose 10 mg,0/6
same,T/C (coordination inhibition positive mice/tested mice) After 1 hour,mice (Balb/c); dose 12 mg,1/6
same,T/C (coordination inhibition positive mice/tested mice) After 4 hours,mice (Balb/c); dose 12 mg,2/6
same,antitumor effect (IR),[2]; oral 5 mg × 4 times (d7-10),5 mg × 4 times (IR 92%)*
"Cc1c(/C=C/CN2CCN(c3cc(F)cc(F)c3)CC2)cnn1-c1cc(NCCN)nc(N)n1.Cl [Example 15, 1-[1-[2-Amino-6-(2-aminoethyl)amino-4-pyrimidinyl]-5-methyl-4-pyrazolyl]-3-[4-(3,5-difluorophenyl)-1-piperazinyl]-1-trans-propene hydrochloride]",GI50,[1],26.6 ng/mL
"Cc1c(/C=C/CN2CCN(c3cc(F)cc(F)c3)CC2)cnn1-c1cc(N2CC(N)C2)nc(N)n1.Cl [Example 19, 1-[1-[2-Amino-6-(3-amino-1-azetidinyl)-4-pyrimidinyl]-5-methyl-4-pyrazolyl]-3-[4-(3,5-difluorophenyl)-1-piperazinyl]-1-trans-propene hydrochloride]",GI50,[1],2.35 ng/mL
"Cc1c(/C=C/CN2CCN(c3cc(F)cc(F)c3)CC2)cnn1-c1nc(N)cc(N2CC(O)C2)n1.Cl [Example 21, 1-[1-[4-Amino-6-(3-hydroxy-1-azetidinyl)-2-pyrimidinyl]-5-methyl-4-pyrazolyl]-3-[4-(3,5-difluorophenyl)-1-piperazinyl]-1-trans-propene hydrochloride]",GI50,[1],3.39 ng/mL
"Cc1c(/C=C/CN2CCN(c3cc(F)cc(F)c3)CC2)cnn1-c1nc(N)cc(N2CCC2)n1 [Example 26, 1-[[4-Amino-6-(1-azetidinyl)-2-pyrimidinyl]-5-methyl-4-pyrazolyl]-3-[4-(3,5-difluorophenyl)-1-piperazinyl]-1-trans-propene hydrochloride]",GI50,[1],6.29 ng/mL
"Cc1c(/C=C/CN2CCN3c4cc(F)cc(F)c4CCC3C2)cnn1-c1cc(NCCO)nc(N)n1 (stereo not drawn) [Example 27, 3-[3-[1-[2-Amino-6-(2-hydroxyethyl)amino-4-pyrimidinyl]-5-methyl-4-pyrazolyl]-2-trans-propen-1-yl]-7,9-difluoro-2,3,4,4a,5,6-hexahydro-1H-pyrazino[1,2-a]quinoline hydrochloride]",GI50,[1],9.3 ng/mL
"Cc1c(/C=C/CN2CCN(c3cc(F)cc(F)c3)CC2)cnn1-c1cc(N2CC(C)(O)C2)nc(N)n1.Cl [Example 54, 1-[1-[2-Amino-6-(3-hydroxy-3-methyl-1-azetidinyl)-4-pyrimidinyl]-5-methyl-4-pyrazolyl]-3-[4-(3,5-difluorophenyl)-1-piperazinyl]-1-trans-propene hydrochloride]",GI50,[1],11.3 ng/mL
same,T/C (coordination inhibition positive mice/tested mice) After 1 hour,mice (Balb/c); dose 10 mg,0/6
same,T/C (coordination inhibition positive mice/tested mice) After 4 hours,mice (Balb/c); dose 10 mg,0/6
same,T/C (coordination inhibition positive mice/tested mice) After 1 hour,mice (Balb/c); dose 30 mg,0/6
same,T/C (coordination inhibition positive mice/tested mice) After 4 hours,mice (Balb/c); dose 30 mg,0/6
same,antitumor effect (IR),[2]; oral 10 mg × 4 times (d7-10),10 mg × 4 times (IR 89%)*
